Experimental data reported in patent US6479474B2, “Dietary calcium as a supplement to vitamin D compound treatment of multiple sclerosis” (Wisconsin Alumni Research Foundation, priority 1999, dated 2002).

Columns and labels:
IL-4 mRNA [1] = conditions: in vivo treatments, literature (Cantorna 1998b); cited from earlier work
[2] = tested on: lymphocytes in the draining LN; conditions: in vivo treatments, literature (Cantorna 1998b); cited from earlier work
G3PDH mRNA = assay: G3PDH transcript analysis in LN by quantitative competitive PCR; type: in vivo; conditions: LN of male mice with EAE, 100 ng daily
Description: (§1) Transcript analysis by quantitative competitive PCR. Cells for mRNA analysis were dissolved in acid guanidinium thiocyanate, and total RNA was isolated by the phenol chloroform extraction method (Chomczynski and Sacchi, 1987). Total cellular RNA was reverse-transcribed using oligo dT primers according to the manufacturer's protocols (Promega) and quantitated by competitive PCR. Primers and mimic DNA specific for glyceraldehyde-3-phosphate dehydrogenase (G3PDH), IL-4 and TGF-β1 were obtained from Clontech Laboratories, Inc. (Palo Alto, Calif.) (Siebert and Larrick, 1992; Siebert and Larrick, 1993). Competitive cDNA mimics which included the G3PDH, IL-4 and TGF-β1 primer sequences adjoining a neutral DNA segment, were serially diluted and added to test cDNA aliquots (Siebert and Larrick, 1992; Siebert and Larrick, 1993). The authentic product to mimic bp sizes were 983/600 for G3PDH, 306/544 for IL-4, and 525/390 for TGF-β1. The mixture was amplified under predetermined optimal conditions and the products were resolved by 1.5% agarose gel electrophoresis and ethidium bromide stained. […] The mimic DNA dilution that yielded a band with a fluorescence intensity that matched the cytokine band was used to calculate cytokine cDNA copy number. The G3PDH transcript quantitation served as a control for reverse transcription efficiency. […]

IL-4 mRNA [3] = assay: IL-4 transcript analysis in LN by quantitative competitive PCR; type: in vivo; conditions: male mice with EAE, 100 ng daily
Description: as §1

TGF-β1 mRNA [4] = assay: TGF-β1 transcript analysis in LN by quantitative competitive PCR; type: in vivo; conditions: male mice with EAE, 100 ng daily, regardless of dietary calcium and number of cells in the LN
Description: as §1

experimental arthritis = conditions: literature (Cantorna 1998a); cited from earlier work
[5] = Body weight at end of the 50 d experiment; type: in vivo; conditions: male mice, end of 50 d experiment, mean ± SD
Description: (§2) Animals and Diets. The B10.PL mice were produced in our colony using breeding pairs obtained from Jackson Laboratories (Bar Harbor, Me.). During breeding, the mice were fed Purina diet 5008 Formilab (Richmond, Ind.), containing 100 IU/g of cholecalciferol (vitamin D3). Mice were used for experiments at 6-8 wk of age at which time the females were 18-22 g and the males were 22-26 g. For experiments, all of the mice were fed synthetic diets (Yang, et al., 1993; Smith, et al., 1987) with the modifications described below. For all experiments each mouse was fed 4 g of the experimental diet (completely eaten) and the diets were replaced every 2-3 days for the duration of each experiment. […] Although the experimental diet was devoid of vitamin D, the mice were exposed to normal light and, therefore, were not vitamin D deficient. EAE was induced in all mice one week after the experimental diets were started. For mice with severe symptoms of EAE, food was placed in small dishes on the bottom of the cage. At the end of the experiments, mice were weighed, killed, and bled.

[6] = Serum calcium by atomic absorption spectrometry; type: in vivo, mice; conditions: high dietary calcium, at EAE-preventing doses (6 ng/d females, 100 ng/d males)
Description: Serum calcium and 1,25-(OH)2D3 analysis. After 50 days the mice were killed, blood was collected by heart puncture and serum was collected following clot formation. Serum calcium concentrations were determined using a Perkin Elmer atomic absorption spectrometer exactly as described (Mohamed, et al., 1995). 1,25-(OH)2D3 analysis was done exactly as described (Arbour, et al., 1996).

[7] = tested on: experimental autoimmune encephalomyelitis (EAE) in B10.PL mice; conditions: literature (Cantorna 1996; Lemire and Archer 1991); cited from earlier work
[8] = tested on: experimental autoimmune encephalomyelitis (EAE) in B10.PL mice; assay: EAE induction in B10.PL mice fed 1,25-(OH)2D3 and various dietary calcium: EAE incidence and prevention; type: in vivo; conditions: for prevention of EAE: 20 mg calcium/100 g diet (low); for incidence of EAE: 20 mg calcium/100 g diet, lower doses that do not raise serum calcium; for times more 1,25-(OH)2D3 needed to prevent EAE in males than females: males vs females
Description: as §2
In the first experimental design, male and female mice were fed diets which contained 1 g calcium/100 g diet and EAE was induced. In a second series of experiments groups of 8-12 mice were fed the experimental diet (control treatment) without vitamin D or the experimental diet plus various concentrations of 1,25-(OH)2D3 as indicated. Females were fed 1,25-(OH)2D3 ranging from 0 to 200 ng/d and the males were fed 0 to 800 ng/d. The experimental diet contained one of 3 calcium concentrations; 20 mg (low), 470 mg (medium) or 1 g (high) calcium/100 g diet as indicated. The final experimental design used only male which were fed the control diet or the same diet containing 100 ng 1,25-(OH)2D3/daily. These mice were fed diets, which contained low, medium, or high calcium as indicated. […] All of the procedures described were reviewed and approved by the University of Wisconsin-Madison Research Animal Resources Center Committee Review Board on Sep. 9, 1994 and the protocol number is A-07-3000-A00755-4-08-94.
EAE disease induction. Myelin basic protein (MBP) was isolated from guinea pig spinal cords (Cantorna, et al., 1996). MBP was lyophilized and stored at −20° C. For immunizations, MBP was dissolved in 0.1 mol/L acetic acid at a concentration of 8 g/L (Cantorna, et al., 1996). Ether anesthetized mice were immunized subcutaneously with 0.1 ml of MBP ([…]) emulsified in an equal volume of Complete Freund's Adjuvant (CFA, Difco Laboratories, Detroit, Mich.) containing Mycobacterium tuberculosis H37 Ra. In addition, on the day of immunization and two days later mice were injected i.p. with 200 ng of pertussis toxin (LIST Biological Laboratories, Campbell, Calif.) suspended in sterile saline. […] Male mice were killed on d 21 post-immunization to measure various immune responses. The EAE scoring system was: 0=normal; 1=limp tail; 2=paraparesis with a clumsy gait; 3=hind limb paralysis; 4=hind and fore limb paralysis; 5=moribund.

LN cells = assay: Flow cytometry of LN cell populations (Thy-1, CD4, CD8); type: in vivo, mice; conditions: regardless of dietary calcium or 1,25-(OH)2D3 treatment
Description: (§3) Lymphocytes. Axillary, brachial and inguinal lymph nodes (LN) from 6 mice were collected and pooled from control and 1,25-(OH)2D3 treated mice on d 21 post-immunization. Each experiment was repeated 3 times in its entirety. These LNs were chosen because they drained the site of immunization. Collected LN were disrupted manually using a 23 g needle and a pair of forceps. Total cell numbers in the LN were determined by counting the number of lymphocytes from control- and 1,25-(OH)2D3 treated mice and dividing by the number of mice in the group. Flow cytometry of fluorescent-labeled cell populations (Thy-1, class II, CD4 and CD8) were done on LN cells from control- and 1,25-(OH)2D3-treated mice using standard protocols and exactly as described (Smith, et al., 1987). For cytokine PCR analysis, LN cells were saved for total cellular RNA isolation.

transplant rejection = conditions: literature (Bouillon 1995; Hullett 1998); cited from earlier work
TNF-α = conditions: in vivo treatments, literature (Cantorna 1998b); cited from earlier work
[9] = tested on: lymphocytes in the draining LN; assay: Total cell numbers in the draining lymph nodes of mice with EAE; type: in vivo; conditions: male mice with EAE, 100 ng daily, d 21 post-immunization
Description: as §3

TGF-β1 mRNA [10] = conditions: in vivo treatments, literature (Cantorna 1998b); cited from earlier work
IFN-γ = conditions: in vivo treatments, literature (Cantorna 1998b); cited from earlier work

C=C1/C(=C\C=C2/CCC[C@]3(C)[C@@H]([C@H](C)CCCC(C)(C)O)CC[C@@H]23)C[C@@H](O)C[C@@H]1O [1,25-(OH)2D3, 1α,25-dihydroxyvitamin D3]
expression of IL-4 (IL-4 mRNA [1]): net increase | total number of lymphocytes [2]: net loss | G3PDH mRNA expression (G3PDH mRNA): no effect | IL4 production (mRNA in LN) (IL-4 mRNA [3]; low calcium diets): not different from controls | amount of IL-4 produced (mRNA in LN) (IL-4 mRNA [3]; medium to high calcium diets): increased as the calcium in the diet increased | TGF-β1 mRNA expression in LN (TGF-β1 mRNA [4]): high levels of TGF-β1 | development of experimental arthritis (experimental arthritis): prevent | Weight ([5]; dietary calcium 20 mg/100 g, high dose 800 ng/day): 13 ± 3 g | Weight ([5]; dietary calcium 20 mg/100 g, intermediate dose 40-500 ng/d): 27 ± 2 g | Weight ([5]; dietary calcium 470 mg/100 g, high dose 400 ng/day): 17 ± 3 g | Weight ([5]; dietary calcium 470 mg/100 g, intermediate dose 50-200 ng/d): 23 ± 2 g | Weight ([5]; dietary calcium 1 g/100 g, high dose 100-400 ng/day): 15 ± 1 g | Weight ([5]; dietary calcium 1 g/100 g, intermediate dose 10-50 ng/d): 25 ± 2 g | serum calcium [6]: elevated | development of EAE [7]: prevent the development of EAE | reduction of the incidence of EAE ([8]; calcium removed from the diet): 50% | effectiveness in preventing EAE ([8]; diet containing high calcium, appropriate doses): 100% | prevention of EAE ([8]; females, at 200 ng/d): never completely prevented | incidence of EAE ([8]; females): 45% | dose at which EAE was completely prevented ([8]; females, 470 mg calcium/100 g diet (medium)): 200 ng/day | dose at which EAE was completely prevented ([8]; females, 1 g calcium/100 g diet (high)): 6 ng/day | drop in EAE incidence compared to mice not treated ([8]; low calcium diets, males and females): 40-45% | times more 1,25-(OH)2D3 needed to prevent EAE in males than females ([8]; high calcium intakes): 17 times | times more 1,25-(OH)2D3 needed to prevent EAE in males than females ([8]; overall): at least 4 times | prevention of EAE ([8]; males, at 800 ng/d): never completely prevented | incidence of EAE ([8]; males): 30% | dose at which EAE was completely prevented ([8]; males, 470 mg calcium/100 g diet (medium)): 400 ng/day | dose at which EAE was completely prevented ([8]; males, 1 g calcium/100 g diet (high)): 100 ng/day | overall symptoms of EAE (day of onset, paralysis scores) ([8]; treated mice, as the incidence dropped (data not shown)): decreased | CD4+ cells (LN cells): 40-44 % of the LN | CD8+ cells (LN cells): 18-21 % of the LN | Thy-1 positive cells (LN cells): 52-57 % of the LN | transplant rejection (transplant rejection): markedly inhibit transplant rejection | TNF-α expression (TNF-α): no effect | total number of cells in the LN ([9]; low calcium diets): the same as controls | total number of cells in the LN ([9]; with addition of calcium to the diet): decreased dramatically | expression of TGF-β1 (TGF-β1 mRNA [10]): net increase | IFN-γ expression (IFN-γ): no effect
